Data from ChEMBL document CHEMBL4011640, “Identification and Structure-Activity Relationships of Novel Compounds that Potentiate the Activities of Antibiotics in Escherichia coli” (J Med Chem, 2017).
pIC50: −log10 of the molar value. ≈ marks a conversion by molar mass, not a printed value. Calls of active or inactive are those of the source. No cut-off for these calls is given here.

Experiments:
[1] = system: Escherichia coli BW25113; assay: Inhibition of AcrA efflux pump in Escherichia coli BW25113 assessed as compound concentration required for potentiation of novobiocin-induced antibacterial activity by 4 fold by checkerboard assay
[2] = system: Escherichia coli; assay: Antimicrobial activity against Escherichia coli BW25113 after 24 hrs by two-fold broth microdilution assay; format: functional; details: BW25113, 24 h
[3] = system: Escherichia coli; assay: Antimicrobial activity against Escherichia coli harboring pores in outer membrane after 24 hrs by two-fold broth microdilution assay; format: functional
[4] = system: Escherichia coli; assay: Antimicrobial activity against Escherichia coli harboring AcrAB-TolC deletion mutant after 24 hrs by two-fold broth microdilution assay; format: functional
[5] = system: Escherichia coli; assay: Antimicrobial activity against AcrAB-TolC knocked out Escherichia coli GD102 harboring […] pores in the outer membrane after 24 hrs by two-fold broth microdilution assay; format: functional; details: GD102, 24 h
[6] = system: Escherichia coli; assay: Binding affinity to Escherichia coli AG100 His-tagged AcrA at 25 uM by SPR assay
[7] = system: Escherichia coli; assay: Inhibition of AcrA in Escherichia coli assessed as increase in HT dye uptake at 25 uM measured up to 600 secs by fluorescence method
[8] = system: Escherichia coli; assay: Disruption of transmembrane potential in Escherichia coli live cells harboring pores in outer membrane at 10 uM by DiSC3(5) probe-based fluorescence assay; format: functional
[9] = system: HEK293; assay: Cytotoxicity against HEK293 cells assessed as reduction in cell viability after overnight incubation by Cell Titer Glo assay; format: cell-based; details: Homo sapiens
[10] = Ratio of MIC for wild type Escherichia coli BW25113 to MIC for Escherichia coli harboring […] pores in the outer membrane; format: functional, cell membranes
[11] = system: Escherichia coli; assay: Ratio of MIC for wild type Escherichia coli harboring […] pores in the outer membrane to MIC for AcrAB-TolC knocked out Escherichia coli GD102 harboring […] pores in the outer membrane; format: functional
[12] = system: Escherichia coli; assay: Ratio of MIC for wild type Escherichia coli harboring […] pores in the outer membrane to MIC for wild type Escherichia coli harboring […] pores in the outer membrane in presence of erythromycin; format: functional
[13] = system: Escherichia coli; assay: Inhibition of AcrA in Escherichia coli assessed as HT dye uptake at 25 uM measured up to 600 secs by fluorescence method relative to control
[14] = system: Escherichia coli; assay: Ratio of MIC for wild type Escherichia coli harboring […] pores in the outer membrane to MIC for wild type Escherichia coli harboring […] pores in the outer membrane in presence of novobiocin; format: functional
[15] = system: Escherichia coli; assay: Ratio of MIC for wild type Escherichia coli harboring AcrAB-TolC deletion mutant to MIC for AcrAB-TolC knocked out Escherichia coli GD102 harboring […] pores in the outer membrane; format: functional
[16] = system: Escherichia coli; assay: Binding affinity to Escherichia coli AG100 His-tagged AcrA at 50 uM by SPR assay
[17] = system: Escherichia coli; assay: Inhibition of AcrA in Escherichia coli assessed as increase in HT dye uptake at 25 uM measured up to 600 secs by fluorescence method relative to control
[18] = system: Escherichia coli BW25113; assay: Inhibition of AcrA efflux pump in Escherichia coli BW25113 assessed as compound concentration required for potentiation of novobiocin-induced antibacterial activity by 2 fold by checkerboard assay

## O=C(CCC(=O)Nc1ccc(C2=NCCN2)cc1)Nc1ccc(C2=NCCN2)cc1
[1]
  Activity: > 400 µM

## O=C(Nc1ccc(-c2ncc[nH]2)cc1)c1ccc(C(=O)Nc2ccc(-c3ncc[nH]3)cc2)c(Cl)c1
[1]
  Activity: > 400 µM

## CC(C)c1ccc(/C=C/C(=O)Nc2ccc(C3=NCCN3)cc2)cc1
[2]
  MIC: 100 µM (≈ 33.3 µg/mL)
[3]
  MIC: 50 µM (≈ 16.7 µg/mL)
[4]
  MIC: 25 µM (≈ 8.34 µg/mL)
[5]
  MIC: 25 µM (≈ 8.34 µg/mL)
[1]
  Activity: 50 µM
[6]
  Activity: Active
[7]
  Activity: Active
[8]
  Activity: inactive
[9]
  pIC50: < 4.00
[10]
  Ratio: 2
[11]
  Ratio: 2
[12]
  Ratio: 8
[13]
  fold change (FC): 6.3
[14]
  Ratio: 8

## NCc1ccc(NC(=O)c2ccc(C(=O)Nc3ccc(CN)cc3)cc2)cc1
[1]
  Activity: 50 µM

## O=C(/C=C/c1cccc(Cl)c1)Nc1ccc(C2=NCCN2)cc1
[1]
  Activity: 50 µM

## COc1ccc(/C=C/C(=O)Nc2ccc(C3=NCCN3)cc2)cc1
[1]
  Activity: 100 µM

## Nc1ccc(C2=NCCN2C(=O)c2ccc(C(=O)N3CCN=C3c3ccc(N)cc3)c(Cl)c2)cc1
[1]
  Activity: 50 µM

## O=C(/C=C/c1ccccc1Br)Nc1ccc(C2=NCCN2)cc1
[2]
  MIC: > 400 µM
[3]
  MIC: > 400 µM
[4]
  MIC: 200 µM (≈ 74.1 µg/mL)
[5]
  MIC: 100 µM (≈ 37 µg/mL)
[1]
  Activity: 50 µM
[6]
  Activity: Active
[7]
  Activity: Active
[10]
  Ratio: 1
[11]
  Ratio: 8
[12]
  Ratio: 32
[13]
  fold change (FC): 11.6
[14]
  Ratio: 32

## O=C(Cc1ccc(Cl)cc1)Nc1ccc(C2=NCCN2)cc1
[1]
  Activity: > 100 µM

## O=C(Nc1cccc(C2=NCCN2)c1)c1ccc(C(=O)Nc2cccc(C3=NCCN3)c2)cc1
[2]
  MIC: 200 µM (≈ 90.5 µg/mL)
[3]
  MIC: 100 µM (≈ 45.3 µg/mL)
[4]
  MIC: 50 µM (≈ 22.6 µg/mL)
[5]
  MIC: 25 µM (≈ 11.3 µg/mL)
[1]
  Activity: 50 µM
[6]
  Activity: Active
[7]
  Activity: Active
[10]
  Ratio: 2
[11]
  Ratio: 4
[12]
  Ratio: 4
[13]
  fold change (FC): 1.7
[14]
  Ratio: 4

## O=C(/C=C/c1ccc(Br)cc1)Nc1ccc(C2=NCCN2)cc1
[1]
  Activity: 100 µM

## O=C(Nc1ccc(C2=NCCN2)cc1)[C@H]1CC[C@H](C(=O)Nc2ccc(C3=NCCN3)cc2)CC1
[2]
  MIC: 50 µM (≈ 22.9 µg/mL)
[3]
  MIC: 25 µM (≈ 11.5 µg/mL)
[4]
  MIC: 12.5 µM (≈ 5.73 µg/mL)
[5]
  MIC: 6.25 µM (≈ 2.87 µg/mL)
[1]
  Activity: > 400 µM
[6]
  Activity: inactive
[7]
  Activity: Active
[10]
  Ratio: 2
[15]
  Ratio: 2
[16]
  Activity: inactive

## O=C(Nc1ccc(C2=NCCN2)cc1)c1ccc(C(=O)Nc2ccc(C3=NCCN3)cc2)c(Cl)c1
[2]
  MIC: > 200 µM
[3]
  MIC: 100 µM (≈ 48.7 µg/mL)
[4]
  MIC: 25 µM (≈ 12.2 µg/mL)
[5]
  MIC: 12.5 µM (≈ 6.09 µg/mL)
[1]
  Activity: 25 µM
[6]
  Activity: Active
[7]
  Activity: Active
[8]
  Activity: inactive
[10]
  Ratio: 4
[11]
  Ratio: 8
[12]
  Ratio: 8
[13]
  fold change (FC): 3.2
[14]
  Ratio: 16
[16]
  Activity: Active

## O=C(Nc1ccc(C2=NCCN2)cc1)c1ccc2cc(Br)ccc2c1
[2]
  MIC: > 400 µM
[3]
  MIC: 200 µM (≈ 78.9 µg/mL)
[4]
  MIC: 25 µM (≈ 9.86 µg/mL)
[5]
  MIC: 12.5 µM (≈ 4.93 µg/mL)
[1]
  Activity: 25 µM
[6]
  Activity: Active
[7]
  Activity: Active
[10]
  Ratio: 4
[11]
  Ratio: 16
[12]
  Ratio: 16
[13]
  fold change (FC): 16
[14]
  Ratio: 16
[17]
  fold change (FC): 1.6

## Cn1cnnc1-c1ccc(NC(=O)c2ccc(C(=O)Nc3ccc(-c4nncn4C)cc3)c(Cl)c2)cc1
[1]
  Activity: > 400 µM

## O=C(Nc1ccc(S(=O)(=O)O)cc1)c1ccc(C(=O)Nc2ccc(S(=O)(=O)O)cc2)cc1
[1]
  Activity: > 100 µM

## O=C(Nc1ccc(C2=NCCN2)cc1)c1ccc(C(=O)Nc2ccc(C3=NCCN3)cc2)c([N+](=O)[O-])c1
[1]
  Activity: 25 µM

## O=C(/C=C/c1ccccc1Cl)Nc1ccc(C2=NCCN2)cc1
[2]
  MIC: > 200 µM
[3]
  MIC: 400 µM (≈ 130 µg/mL)
[4]
  MIC: 200 µM (≈ 65.2 µg/mL)
[5]
  MIC: 100 µM (≈ 32.6 µg/mL)
[1]
  Activity: 25 µM
[6]
  Activity: Active
[7]
  Activity: Active
[8]
  Activity: inactive
[9]
  pIC50: 4.98
[10]
  Ratio: 1
[11]
  Ratio: 4
[12]
  Ratio: 8
[13]
  fold change (FC): 9.7
[14]
  Ratio: 32

## CC(C)[C@@H]1NC(=O)[C@H](C)OC(=O)[C@@H](C(C)C)NC(=O)[C@@H](C(C)C)OC(=O)[C@H](C(C)C)NC(=O)[C@H](C)OC(=O)[C@@H](C(C)C)NC(=O)[C@@H](C(C)C)OC(=O)[C@H](C(C)C)NC(=O)[C@H](C)OC(=O)[C@@H](C(C)C)NC(=O)[C@@H](C(C)C)OC1=O
[8]; TDE = time-dependent effect
  Activity: Tde

## O=C(Nc1ccc(C2=NCCN2)cc1)c1ccc(Cl)cc1
[1]
  Activity: 200 µM

## O=C(CCc1ccccc1)Nc1ccc(C2=NCCN2)cc1
[1]
  Activity: > 100 µM

## Cc1cc(C(=O)Nc2ccc(C3=NCCN3)cc2)ccc1C(=O)Nc1ccc(C2=NCCN2)cc1
[1]
  Activity: 25 µM

## CC(C)(C)c1ccc(/C=C/C(=O)Nc2ccc(C3=NCCN3)cc2)cc1
[2]
  MIC: 25 µM (≈ 8.69 µg/mL)
[3]
  MIC: 25 µM (≈ 8.69 µg/mL)
[4]
  MIC: 12.5 µM (≈ 4.34 µg/mL)
[5]
  MIC: 12.5 µM (≈ 4.34 µg/mL)
[6]
  Activity: Active
[7]
  Activity: Active
[10]
  Ratio: 1
[11]
  Ratio: 2
[12]
  Ratio: 2
[13]
  fold change (FC): 2.6
[14]
  Ratio: 2
[18]
  Activity: 12.5 µM
[17]
  fold change (FC): 2.6

## O=C(Nc1ccc(C2=NCCN2)cc1)c1ccc(C(=O)Nc2ccc(C3=NCCN3)cc2)cc1
[1]
  Activity: 50 µM

## O=C(Nc1ccc(NC(=O)c2ccc(C3=NCCN3)cc2)cc1)c1ccc(C2=NCCN2)cc1
[2]
  MIC: 50 µM (≈ 22.6 µg/mL)
[3]
  MIC: 50 µM (≈ 22.6 µg/mL)
[4]
  MIC: 25 µM (≈ 11.3 µg/mL)
[5]
  MIC: 12.5 µM (≈ 5.66 µg/mL)
[1]
  Activity: 12.5 µM
[6]
  Activity: Active
[7]
  Activity: inactive
[16]
  Activity: Active

## O=C(Nc1ccc(C2=NCCN2)cc1)c1ccc(C(=O)Nc2ccc(C3=NCCN3)cc2)c(F)c1
[1]
  Activity: 100 µM

## O=C(Nc1ccc(C2=NCCN2)cc1)c1cccc(C(=O)Nc2ccc(C3=NCCN3)cc2)c1
[1]
  Activity: 200 µM

## O=C(Nc1ccc(CO)cc1)c1ccc(C(=O)Nc2ccc(CO)cc2)c(Cl)c1
[1]
  Activity: > 200 µM

## O=C(/C=C/c1ccccc1C(F)(F)F)Nc1ccc(C2=NCCN2)cc1
[1]
  Activity: 50 µM

## N#Cc1cccc(NC(=O)c2ccc(C(=O)Nc3cccc(C#N)c3)c(Cl)c2)c1
[1]
  Activity: > 400 µM

## O=C(Nc1ccc(C2=NCCN2)cc1)c1ccc(C(=O)Nc2ccc(C3=NCCN3)cc2)c(Br)c1
[1]
  Activity: 50 µM

## O=C(/C=C/c1ccc(Cl)cc1)Nc1ccc(C2=NCCN2)cc1
[2]
  MIC: 200 µM (≈ 65.2 µg/mL)
[3]
  MIC: 100 µM (≈ 32.6 µg/mL)
[4]
  MIC: 50 µM (≈ 16.3 µg/mL)
[5]
  MIC: 25 µM (≈ 8.14 µg/mL)
[1]
  Activity: 25 µM
[7]
  Activity: Active
[10]
  Ratio: 2
[11]
  Ratio: 4
[12]
  Ratio: 4
[13]
  fold change (FC): 2.5
[14]
  Ratio: 8

## O=C(NCc1ccccc1)c1ccc(C(=O)Nc2ccc(C3=NCCN3)cc2)cc1
[1]
  Activity: > 200 µM

## COC(=O)c1ccc(C(=O)Nc2ccc(C3=NCCN3)cc2)cc1
[1]
  Activity: > 400 µM

## N#Cc1ccc(NC(=O)c2ccc(C(=O)Nc3ccc(C#N)cc3)c(Cl)c2)cc1
[1]
  Activity: > 400 µM

## O=C(/C=C/c1ccccc1)Nc1ccc(C2=NCCN2)cc1
[1]
  Activity: 200 µM

## O=C(Nc1ccc(C2=NCCN2)cc1)c1ccc2c(c1)CN(Cc1ccccc1)C2=O
[1]
  Activity: > 200 µM
